Source: paper PMC9889419 (Pharmacological Reports, 2022)
Values joined by “and” are separate entries in the source; they are usually repeats but may differ in a detail not shown here. Identical values can stand only once. Counter-ions that a name gives are not always drawn. Like-named read-outs stand apart in the source and are kept apart here.

Columns and labels:
[1] = system: rats; experiment: Maximal electroshock seizure (MES) test; type: in vivo
[2] = MTT assay; type: cell-based, murine; settings: mouse, astrocyte cell line (ATCC CRL-2541); 250 µM; read-out: cell viability compared to control
Method: Cells were seeded at a density of 1 × 10^4 cells per well in 96 well plates. […] Next, Crystal Dissolving Solution (Cayman) was added to each well.

[3] = system: mice
[4] = system: mice; experiment: animal or person; settings: Mus musculus, ip, read-out: MES ED50
[5] = system: rats; type: in vivo; settings: ip
[6] = Rotarod test (neurotoxicity); type: in vivo, mice; settings: mouse, in vivo; mice, ip, 0.25 h;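 also: in vivo neurotoxicity screen run within the NIH Epilepsy Therapy Screening Program (ETSP, formerly Anticonvulsant Screening Program)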
[7] = biological target: 5-HT2A (Homo sapiens, UniProt P28223); experiment: Radioligand binding
Method: (§1) Radioligand binding. Radioligand binding assays were performed at Eurofins CEREP (France). The results are expressed as a percent of control specific binding (measured specific binding*100/control specific binding) and as a percent inhibition of control specific binding (100-(measured specific binding*100)/control specific binding) obtained in the presence of the test compounds. The IC50 values (concentration causing a half-maximal inhibition of control specific binding) and Hill coefficients (nH) were determined by non-linear regression analysis of the competition curves generated with mean replicate values using Hill equation curve fitting (Y = D + [A-D]/[1 + (C/C50)^nH], where Y = specific binding, A = left asymptote of the curve, D = right asymptote of the curve, C = compound concentration, C50 = IC50, and nH = slope factor). This analysis was performed using software developed at Cerep (Hill software) and validated by comparison with data generated by the commercial software SigmaPlot® 4.0 for Windows® (© 1997 by SPSS Inc.). The inhibition constants (Ki) were calculated using the Cheng Prusoff equation (Ki = IC50/[1 + L/KD], where L = concentration of radioligand in the assay, and KD = affinity of the radioligand for the receptor). A scatchard plot is used to determine the Kd.

[8] = biological target: 5-HT2B (Homo sapiens, UniProt P41595); experiment: Radioligand binding
Method: as §1

[9] = system: mice; experiment: Writhing test; type: in vivo; settings: 30 mg/kg
Method: Inflammatory acute pain—writhing test. In this test, mice were placed individually into glass beakers and were allowed to habituate for the next 30 min. Then, each mouse was injected with tested compound, dissolved in saline (at a dose 30 mg/kg) or vehicle, and then placed back into the glass beaker for 30 min. To induce inflammatory pain, 0.9% acetic acid solution (Polskie Odczynniki Chemiczne, Poland) prepared in saline was injected by the intraperitoneal route. Mice were placed in the beakers again and were observed continuously for the next 30 min. Stereotypical writhes (lengthwise constrictions of the torso with a concomitant concave arching of the back) were counted over this period in drug-treated and control mice.

[10] = system: mice; experiment: Capsaicin test; type: in vivo
Method: Neurogenic pain—capsaicin test. In this test compound dissolved in saline was tested at doses 5, 10, and 30 mg/kg. Compound was administered ip and 30 min later 1.6 μg of capsaicin (Sigma-Aldrich, Germany) dissolved in 20 μL of a mixture containing 0.9% saline and ethanol (5% of the final volume) was injected intraplantarly in the ventral surface of the right-hind paw of each mouse. The animals were observed individually for 5 min following capsaicin injection. In all experimental groups, the amount of time spent on licking, biting, or lifting the injected paw was recorded with a chronometer and was considered as an indicator of nociception.

[11] = biological target: T1, hNav1.1 sodium channel (Homo sapiens, UniProt P35498); experiment: Nav channel electrophysiology (IonWorks Quattro); type: cell-based
T1 construct: host or cells: CHO cells

[12] = system: mice; experiment: Tail immersion test (local anesthetic activity); type: in vivo
Method: The tail immersion test in mice. […] The method was performed by subcutaneous (sc) injection of the tested substance dissolved in saline, at a concentration range 0.06–2%, in a constant volume of 0.2 mL about 1 cm from the root of the mouse tail. Fifteen minutes later, the 3-cm distal part of the tail was immersed into temperature-controlled water (50 ± 0.5 °C). The reaction time (latency until the tail is pulled away) was measured by the means of a chronometer. In this assay the cut-off was 20 s [29].

[13] = system: normotensive anaesthetized rats; experiment: Influence on blood pressure; type: in vivo; settings: 5 mg/kg iv, immediately after administration
Method: Influence on blood pressure in rats. Rats were anaesthetized with thiopental (75 mg/kg ip). The right carotid artery was cannulated with polyethylene tube filled with heparin in saline to facilitate pressure measurements using a Datamax apparatus (Columbus Instruments).

[14] = biological target: T2, hNav1.4 sodium channel (Homo sapiens, UniProt P35499); experiment: Nav channel electrophysiology (IonWorks Quattro); type: cell-based
T2 construct: host or cells: CHO cells

[15] = system: mice; experiment: 6 Hz test; type: in vivo; settings: mice; for ED50: Mus musculus
Method: The 6 Hz model test was carried out according to the protocol originally described by Brown et al. [54] and more recently by Barton et al. [55] and Kamiński et al. [47] and is a model of pharmacoresistant epilepsy [56].

[16] = biological target: T3, hNav1.5 sodium channel (Homo sapiens, UniProt Q14524); experiment: Nav channel electrophysiology (IonWorks Quattro); type: cell-based
T3 construct: host or cells: CHO cells

[17] = system: rats; experiment: SCMET (subcutaneous Metrazol) test; type: in vivo; settings: for SCMET ED50: rats
[18] = system: mice; experiment: Bicuculline-induced seizures; type: in vivo; settings: ip
[19] = system: mice; experiment: Rotarod test (neurotoxicity); type: in vivo; settings: ip, […];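 also: in vivo neurotoxicity screen run within the NIH Epilepsy Therapy Screening Program (ETSP, formerly Anticonvulsant Screening Program)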
[20] = system: rats; type: in vivo; settings: ip; remark: listed apart in the source
[21] = 0.1 μM, read-out: % of control specific binding
[22] = 1 μM, read-out: % of control specific binding
[23] = 10 μM, read-out: % of control specific binding

Chain of 5-HT2B (P41595 whole entry): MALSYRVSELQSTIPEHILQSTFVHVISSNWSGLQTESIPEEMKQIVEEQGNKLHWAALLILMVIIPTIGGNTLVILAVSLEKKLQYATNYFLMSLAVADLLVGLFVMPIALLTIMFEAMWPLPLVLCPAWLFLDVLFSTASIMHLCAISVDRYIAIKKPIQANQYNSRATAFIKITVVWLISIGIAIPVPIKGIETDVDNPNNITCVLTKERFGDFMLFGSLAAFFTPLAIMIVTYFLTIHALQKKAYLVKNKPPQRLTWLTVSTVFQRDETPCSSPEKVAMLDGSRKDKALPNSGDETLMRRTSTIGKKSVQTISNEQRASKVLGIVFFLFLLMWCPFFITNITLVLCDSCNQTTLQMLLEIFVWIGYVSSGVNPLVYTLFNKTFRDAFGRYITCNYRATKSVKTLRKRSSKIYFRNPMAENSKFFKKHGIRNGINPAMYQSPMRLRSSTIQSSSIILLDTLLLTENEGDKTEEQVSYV
Chain of 5-HT2A (P28223 whole entry): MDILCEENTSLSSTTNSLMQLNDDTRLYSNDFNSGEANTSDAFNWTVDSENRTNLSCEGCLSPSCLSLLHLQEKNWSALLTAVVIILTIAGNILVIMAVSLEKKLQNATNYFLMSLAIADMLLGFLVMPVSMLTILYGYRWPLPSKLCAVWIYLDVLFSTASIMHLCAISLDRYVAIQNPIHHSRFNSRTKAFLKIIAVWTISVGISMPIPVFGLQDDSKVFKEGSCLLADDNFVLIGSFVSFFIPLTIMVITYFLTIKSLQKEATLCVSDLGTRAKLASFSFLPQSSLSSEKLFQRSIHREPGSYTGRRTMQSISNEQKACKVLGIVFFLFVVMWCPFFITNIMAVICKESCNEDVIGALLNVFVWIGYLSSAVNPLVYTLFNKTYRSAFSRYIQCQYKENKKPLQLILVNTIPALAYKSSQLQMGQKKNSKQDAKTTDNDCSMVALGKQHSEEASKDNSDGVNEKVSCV
T2 sequence (P35499 whole entry): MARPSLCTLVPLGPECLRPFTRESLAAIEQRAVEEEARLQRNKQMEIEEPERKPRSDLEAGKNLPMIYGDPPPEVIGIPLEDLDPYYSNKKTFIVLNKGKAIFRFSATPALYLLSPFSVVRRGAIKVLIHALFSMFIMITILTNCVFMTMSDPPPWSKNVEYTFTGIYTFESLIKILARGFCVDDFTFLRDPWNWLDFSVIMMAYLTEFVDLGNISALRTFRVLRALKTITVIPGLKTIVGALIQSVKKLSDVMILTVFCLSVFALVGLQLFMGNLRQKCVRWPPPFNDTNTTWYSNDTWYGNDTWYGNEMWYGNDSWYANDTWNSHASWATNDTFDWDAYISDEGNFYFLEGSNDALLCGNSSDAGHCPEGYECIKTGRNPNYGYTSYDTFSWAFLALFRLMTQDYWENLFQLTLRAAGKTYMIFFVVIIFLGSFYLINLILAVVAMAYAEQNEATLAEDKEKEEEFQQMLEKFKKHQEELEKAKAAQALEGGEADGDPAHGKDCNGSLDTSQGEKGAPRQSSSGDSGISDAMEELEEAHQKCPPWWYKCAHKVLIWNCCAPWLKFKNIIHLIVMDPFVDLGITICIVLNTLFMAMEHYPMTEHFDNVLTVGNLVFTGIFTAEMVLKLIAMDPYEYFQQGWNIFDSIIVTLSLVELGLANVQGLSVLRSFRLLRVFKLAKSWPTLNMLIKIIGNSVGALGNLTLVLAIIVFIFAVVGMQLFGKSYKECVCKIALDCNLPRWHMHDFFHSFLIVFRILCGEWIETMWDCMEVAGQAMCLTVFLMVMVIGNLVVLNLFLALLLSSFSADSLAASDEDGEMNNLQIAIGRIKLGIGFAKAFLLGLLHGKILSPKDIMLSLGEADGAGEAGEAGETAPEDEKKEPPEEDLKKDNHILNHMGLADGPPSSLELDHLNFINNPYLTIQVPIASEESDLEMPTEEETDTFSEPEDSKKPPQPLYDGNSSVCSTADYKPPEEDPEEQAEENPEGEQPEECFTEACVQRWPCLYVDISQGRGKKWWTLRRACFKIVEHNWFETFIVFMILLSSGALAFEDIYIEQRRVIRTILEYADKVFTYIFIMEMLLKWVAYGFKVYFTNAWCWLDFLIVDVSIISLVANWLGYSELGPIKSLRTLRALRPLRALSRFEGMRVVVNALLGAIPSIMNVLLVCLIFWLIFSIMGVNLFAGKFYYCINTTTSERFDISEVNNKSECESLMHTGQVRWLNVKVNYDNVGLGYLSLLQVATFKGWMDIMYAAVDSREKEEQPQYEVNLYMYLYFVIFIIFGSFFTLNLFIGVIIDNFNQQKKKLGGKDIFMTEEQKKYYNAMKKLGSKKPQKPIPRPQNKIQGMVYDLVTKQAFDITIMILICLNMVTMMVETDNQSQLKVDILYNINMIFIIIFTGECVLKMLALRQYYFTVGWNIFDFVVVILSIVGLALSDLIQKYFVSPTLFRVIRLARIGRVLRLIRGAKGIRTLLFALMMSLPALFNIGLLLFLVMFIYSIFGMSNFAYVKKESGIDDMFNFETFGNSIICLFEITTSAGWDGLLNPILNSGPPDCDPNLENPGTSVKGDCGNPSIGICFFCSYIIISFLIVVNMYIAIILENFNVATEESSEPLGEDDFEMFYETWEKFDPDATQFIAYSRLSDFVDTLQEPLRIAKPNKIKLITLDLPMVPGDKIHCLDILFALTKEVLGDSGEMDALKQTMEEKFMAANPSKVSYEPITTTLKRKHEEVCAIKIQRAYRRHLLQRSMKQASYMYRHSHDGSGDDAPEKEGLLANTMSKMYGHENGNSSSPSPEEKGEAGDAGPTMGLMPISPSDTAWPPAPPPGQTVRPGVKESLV
T3 sequence (Q14524 whole entry): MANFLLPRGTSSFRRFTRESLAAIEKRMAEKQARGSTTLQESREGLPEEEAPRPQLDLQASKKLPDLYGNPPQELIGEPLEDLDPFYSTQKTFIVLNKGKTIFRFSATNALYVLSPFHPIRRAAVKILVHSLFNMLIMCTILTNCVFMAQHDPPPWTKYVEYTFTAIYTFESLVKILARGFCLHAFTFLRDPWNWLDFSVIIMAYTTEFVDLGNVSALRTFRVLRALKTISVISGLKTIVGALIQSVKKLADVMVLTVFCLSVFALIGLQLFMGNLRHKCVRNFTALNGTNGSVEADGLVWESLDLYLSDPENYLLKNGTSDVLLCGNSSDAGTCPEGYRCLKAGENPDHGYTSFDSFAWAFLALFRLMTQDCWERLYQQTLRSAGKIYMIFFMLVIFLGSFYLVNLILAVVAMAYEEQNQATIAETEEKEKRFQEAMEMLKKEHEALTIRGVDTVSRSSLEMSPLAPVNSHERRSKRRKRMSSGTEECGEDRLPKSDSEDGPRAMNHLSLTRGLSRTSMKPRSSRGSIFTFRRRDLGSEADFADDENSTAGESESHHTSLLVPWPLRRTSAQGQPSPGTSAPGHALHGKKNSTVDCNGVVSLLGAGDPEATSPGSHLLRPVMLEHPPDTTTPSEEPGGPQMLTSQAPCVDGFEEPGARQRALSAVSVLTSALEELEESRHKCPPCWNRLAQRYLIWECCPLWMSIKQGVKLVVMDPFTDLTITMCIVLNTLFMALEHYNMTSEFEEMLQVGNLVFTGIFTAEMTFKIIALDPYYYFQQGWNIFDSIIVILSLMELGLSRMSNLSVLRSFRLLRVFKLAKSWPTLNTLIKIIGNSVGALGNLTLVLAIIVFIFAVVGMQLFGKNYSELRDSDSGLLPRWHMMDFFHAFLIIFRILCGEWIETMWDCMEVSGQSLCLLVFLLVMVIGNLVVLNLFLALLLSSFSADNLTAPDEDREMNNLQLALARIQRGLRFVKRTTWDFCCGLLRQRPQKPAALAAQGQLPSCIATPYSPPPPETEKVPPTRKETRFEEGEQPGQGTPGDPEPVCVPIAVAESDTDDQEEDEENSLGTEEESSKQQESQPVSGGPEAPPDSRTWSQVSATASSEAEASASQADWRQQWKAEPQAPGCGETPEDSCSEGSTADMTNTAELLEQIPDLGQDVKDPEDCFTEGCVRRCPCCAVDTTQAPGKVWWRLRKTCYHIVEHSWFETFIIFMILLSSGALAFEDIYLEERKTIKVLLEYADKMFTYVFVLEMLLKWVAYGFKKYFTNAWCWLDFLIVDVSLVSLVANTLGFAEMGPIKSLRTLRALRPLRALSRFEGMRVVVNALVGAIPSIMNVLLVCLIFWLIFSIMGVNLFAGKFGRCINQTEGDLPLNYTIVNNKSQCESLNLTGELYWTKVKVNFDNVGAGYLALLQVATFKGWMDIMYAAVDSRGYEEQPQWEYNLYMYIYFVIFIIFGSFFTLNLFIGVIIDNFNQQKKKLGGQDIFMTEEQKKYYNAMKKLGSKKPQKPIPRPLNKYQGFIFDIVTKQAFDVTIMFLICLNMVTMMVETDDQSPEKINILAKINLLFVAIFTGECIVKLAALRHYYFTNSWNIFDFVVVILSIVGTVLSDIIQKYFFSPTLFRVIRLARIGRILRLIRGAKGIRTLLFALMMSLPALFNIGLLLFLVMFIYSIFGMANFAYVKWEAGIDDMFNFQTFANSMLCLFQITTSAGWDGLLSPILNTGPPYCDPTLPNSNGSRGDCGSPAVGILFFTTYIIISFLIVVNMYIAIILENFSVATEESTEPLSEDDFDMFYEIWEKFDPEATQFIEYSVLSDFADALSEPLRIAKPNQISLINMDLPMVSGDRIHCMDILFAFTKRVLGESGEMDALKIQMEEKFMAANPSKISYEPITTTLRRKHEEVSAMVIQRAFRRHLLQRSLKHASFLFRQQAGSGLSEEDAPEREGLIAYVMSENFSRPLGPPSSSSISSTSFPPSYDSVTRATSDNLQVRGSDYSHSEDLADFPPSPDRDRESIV

With `CCC(CO)NCCOc1c(C)cccc1Cl` (stereo not drawn) [KM-408, R,S-2-((2-(2-chloro-6-methylphenoxy)ethyl)amino)butan-1-ol hydrochloride] the ED50 ([1]; Rattus norvegicus, ip, 0.25 h) was 5.69 mg/kg, the “MES PI” value ([1]; ip) was 9.55 and the “MES TPE” value ([1]; ip) was 0.25 h. The viability at 24 h, 250 µM [2] was 81%, the “MES TPE” value ([3]; mice, ip) was 0.25 h and the ED50 [4] was 13.3 mg/kg. For the same molecule, the “Hippocampal kindling: death at” value ([5]; […]) was 200 mg/kg, the TD50 [6] was 64.3 mg/kg and the IC50 [7] was 55 µM. For the same molecule, the Ki [7] was 30 µM, the remaining activity at 0.1 µM [7, 21] was 104% and the remaining activity at 1 µM [7, 22] was 95%. It also gave a remaining activity at 3 µM ([7]; 3 μM, read-out: % of control specific binding) of 94.1%, a remaining activity at 10 µM [7, 23] of 85.1% and a remaining activity at 100 µM ([7]; 100 μM, read-out: % of control specific binding) of 36.9%. It also gave an IC50 [8] of 2.4 µM, a Ki [8] of 1.2 µM and a remaining activity at 0.001 µM ([8]; 0.001 μM, read-out: % of control specific binding) of 130%. For the same molecule, the remaining activity at 0.01 µM ([8]; 0.01 μM, read-out: % of control specific binding) was 121%, the remaining activity at 0.1 µM [8, 21] was 103% and the remaining activity at 1 µM [8, 22] was 88%. For the same molecule, the remaining activity at 10 µM [8, 23] was 28.3%, the “effect on acetic acid-induced writhing” value [9] was “not significantly effective” and the “reduction of nociceptive response” value ([10]; 5 mg/kg ip, not significant) was 19%. For the same molecule, the licking response ([10]; 10 mg/kg ip) was 42.7 ± 5.6 s, the “reduction of licking response” value ([10]; 10 mg/kg ip) was 38% and the licking response ([10]; 30 mg/kg ip) was 27.7 ± 5.7 s. The “reduction of licking response” value ([10]; 30 mg/kg ip) was 60%, the ED50 ([10]; Mus musculus, mice, ip) was 19 mg/kg and the IC50 ([11]; 10 Hz) was 17.5 µM. For the same molecule, the IC50 ([11]; Inactivated state) was under 10 µM, the IC50 ([11]; Tonic block) was 64.2 µM and the “Reaction time to painful stimulus” value ([12]; 0.062%) was 4.4 ± 1.0 s. For the same molecule, the “Prolongation of the time reaction” value ([12]; 0.125%) was 42.9%, the “Reaction time to painful stimulus” value ([12]; 0.125%) was 5.0 ± 1.0 s and the “Prolongation of the time reaction” value ([12]; 0.5%) was 166% and 165.7%. For the same molecule, the “Reaction time to painful stimulus” value ([12]; 0.5%) was 9.3 ± 0.9 s, the “Prolongation of the time reaction” value ([12]; 2.0%) was 323% and 322.9% and the “Reaction time to painful stimulus” value ([12]; 2.0%) was 14.8 ± 1.9 s. The “Reaction time to painful stimulus” value ([12]; […]) was 7.4 ± 1.0 s, the “tail immersion test: active at” value ([12]; mice) was 0.5% and the “lowering of diastolic blood pressure” value [13] was “approximately 21 mmHg”. For the same molecule, the “lowering of systolic blood pressure” value [13] was “approximately 21 mmHg”, the IC50 ([14]; 10 Hz) was 8.17 µM and the IC50 ([14]; Inactivated state) was under 10 µM. For the same molecule, the IC50 ([14]; Tonic block) was 68 µM, the “6 Hz TPE” value ([15]; 32 mA, ip) was 0.25 h and the “6 Hz TPE” value ([15]; 44 mA, ip) was 0.25 h. The “6 Hz TPE” value ([15]; 44 mA, po) was 0.25 h, the ED50 ([15]; ip, 32 mA) was 29.4 mg/kg and the ED50 ([15]; ip, 44 mA) was 35.1 mg/kg. For the same molecule, the ED50 ([15]; po, 44 mA) was 281 mg/kg, the IC50 ([16]; 10 Hz) was 4.85 µM and the IC50 ([16]; Inactivated state) was under 10 µM. It also gave an IC50 ([16]; Tonic block) of 47.9 µM and an ED50 ([17]; Rattus norvegicus, ip, […], read-out: SCMET ED50) of over 54 mg/kg.
In the case of `CCC(CO)NCCOc1c(C)cccc1Cl` (stereo not drawn) [Compound 4, R,S-2-((2-(2-chloro-6-methylphenoxy)ethyl)amino)butan-1-ol], the “MES TPE” value ([1]; ip) is reported as 0.25 h, the “MES ED50” value ([1]; ip, […]) is reported as 7.3 (5.39–9.89) mg/kg and the “MES ED50” value ([1]; po) is reported as over 60 mg/kg. For the same molecule, the “MES PI” value ([1]; po) was over 3.55, the “MES ED50” value ([1]; po, […]) was 67.69 (43.01–93.82) mg/kg and the “MES TPE” value ([3]; female mice, ip) was 0.25 h. For the same molecule, the “MES ED50” value ([3]; female mice, ip, […]) was 11.64 (10.55–12.47) mg/kg, the “MES ED50” value ([3]; mice, ip, […]) was 21.44 (18.63–25.32) mg/kg and the “MES PI” value ([3]; mice, po) was 6.12. For the same molecule, the “MES TPE” value ([3]; mice, po) was 0.5 h, the “MES ED50” value ([3]; mice, po, 0.5 h) was 58.13 (45.58–68.93) mg/kg and the “Bicuculline-induced seizures ED50” value [18] was over 70 mg/kg. The “Hippocampal kindling avg. seizure score by Racine (0–5)” value ([5]; at 40 mg/kg, 0.25–2.25 h) was 5, the “Rotarod TD50” value ([19]; female mice) was 40.11 (36.49–42.98) mg/kg and the “Rotarod TD50” value ([19]; mice) was 54.99 (52.95–56.94) mg/kg. The “% of control specific binding” value ([7]; 100 μM) was 37.1%, the “% of control specific binding” value ([8]; 100 μM) was 2.3% and the TD97 [20] was 40.53 mg/kg. For the same molecule, the “Pilocarpine-induced status epilepticus prevention: result” value ([20]; at 40 mg/kg) was “no activity”, the “6 Hz ED50” value ([15]; 32 mA, ip) was 32.4 (28.4–36.0) mg/kg and the “6 Hz TPE” value ([15]; 32 mA, ip) was 0.25 h. The “6 Hz ED50” value ([15]; 44 mA, ip) was 29.75 (28.3–31.5) mg/kg, the “6 Hz TPE” value ([15]; 44 mA, ip) was 0.25 h and the “SCMET ED50” value ([17]; ip, […]) was over 50 mg/kg. The “SCMET ED50” value ([17]; po) was over 240 mg/kg.
